{
  "source": "patent US7186701B2",
  "about": "“Dehydrating agent and method for dehydrating moist article using the agent and dehydrated article obtained by the method” (Kabushiki Kaisha Hayashibara Seibutsu Kagaku Kenkyujo, priority 2001, dated 2007)",
  "key": {"[1]": {"tested_on": "Bifidobacterium adolescentis JCM 1275", "test": "Assimilation test", "type": "cell-based", "settings": "0.5% saccharide in PYF medium, 37° C., four days, anaerobic"}, "[2]": {"test": "Amino carbonyl reaction with glycine", "type": "physicochemical", "settings": "10% (w/v) with 1% (w/v) glycine, pH 7.0, 120° C.", "method": "Four milliliter aliquots of the resulting solution were placed in glass test tubes, sealed, and heated at 120° C. for 30 to 90 min. After allowing to stand for cooling at ambient temperature, each of the resulting solutions was measured for coloration degree to examine their amino carbonyl reactivity. The coloration degree was evaluated based on the absorbance in a cell with 1-cm light pass at a wavelength of 480 nm."}, "[3]": {"tested_on": "Clostridium perfringens JCM 3816", "type": "cell-based", "settings": "0.5% saccharide in PYF medium, 37° C., four days, anaerobic"}, "amylopsin": {"molecular_target": "T1, amylopsin (Homo sapiens, UniProt P04746)", "T1 sequence (P04746 16-511)": "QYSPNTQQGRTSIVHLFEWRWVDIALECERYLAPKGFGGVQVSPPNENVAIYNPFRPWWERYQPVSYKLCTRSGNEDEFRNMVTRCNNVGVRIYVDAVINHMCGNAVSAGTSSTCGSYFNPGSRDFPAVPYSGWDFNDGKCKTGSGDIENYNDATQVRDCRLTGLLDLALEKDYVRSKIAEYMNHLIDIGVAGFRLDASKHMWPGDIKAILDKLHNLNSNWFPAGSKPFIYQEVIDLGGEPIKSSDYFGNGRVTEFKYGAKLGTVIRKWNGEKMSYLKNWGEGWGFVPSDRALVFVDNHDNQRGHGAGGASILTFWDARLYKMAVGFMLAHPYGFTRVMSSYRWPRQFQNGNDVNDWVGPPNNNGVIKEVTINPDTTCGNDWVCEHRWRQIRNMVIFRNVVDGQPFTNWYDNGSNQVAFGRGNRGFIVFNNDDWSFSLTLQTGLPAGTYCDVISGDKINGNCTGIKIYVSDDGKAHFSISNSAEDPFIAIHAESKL"}},
  "data": [
    {"molecule": "OCC1OC2OCC3O[C@H](O[C@H]4C(O)C(CO)OC(OCC5O[C@H](O[C@@H](C1O)C2O)C(O)C(O)[C@@H]5O)C4O)C(O)C(O)[C@@H]3O", "note": "(stereo partly drawn) [cyclotetrasaccharide, cyclo{→6)-α-D-glucopyranosyl-(1→3)-α-D-glucopyranosyl-(1→6)-α-D-glucopyranosyl-(1→3)-α-D-glucopyranosyl-(1→}]", "values": [
      {"measurement": "Assimilability", "setting": "[1]", "result": "− (judged as negative (−) when the post culture had a pH of 6.0 or higher)"},
      {"measurement": "Coloration degree (A480 nm)", "setting": "[2]; heating time 0 min", "result": 0.00, "unit": "A480 nm"},
      {"measurement": "Coloration degree (A480 nm)", "setting": "[2]; heating time 30 min", "result": 0.00, "unit": "A480 nm"},
      {"measurement": "Coloration degree (A480 nm)", "setting": "[2]; heating time 60 min", "result": 0.00, "unit": "A480 nm"},
      {"measurement": "Coloration degree (A480 nm)", "setting": "[2]; heating time 90 min", "result": 0.00, "unit": "A480 nm"},
      {"measurement": "Assimilability", "setting": "[3]", "result": "− (judged as negative (−) when the post culture had a pH of 6.0 or higher)"},
      {"measurement": "Decomposition percentage (%) by digestive enzyme", "setting": "amylopsin", "result": 0.0, "unit": "%"}
    ]}
  ]
}
